The source of these data is patent US20230183187A1, “QUINAZOLINE COMPOUNDS AS INHIBITORS OF PREMATURE TERMINATION CODONS” (CENTRE NATIONAL DE LA RECHERCHE SCIENTIFIQUE, priority 2020, published 2023).

The test system of one assay is HeLa cells. The experiment in a line: IC50 in HeLa cells. It is filed as cell-based. The following applies: Homo sapiens.
The test system of the next assay is nonsense mutation W1268X. The experiment in a line: pAC99 dual reporter readthrough in HeLa cells, W1268X. It is filed as cell-based, human. To be noted: 24 hours. How it is done: (§1) Different compounds of the invention have been tested for their ability to induce readthrough on the nonsense mutation W1268X or R213X in HeLa cells.
(§2) To this aim the inventors used the pAC99 dual reporter plasmid. This dual reporter is used to quantify stop-codon readthrough through the measurement of luciferase and beta-galactosidase (internal normalisation) activities. Readthrough levels for nonsense mutations were analysed in the presence or absence of tested molecules. Cells are seeded in a 6-well plate. The next day, cells are transfected with the reporter plasmid using the JetPei reagent (Invitrogen). The following day, they are rinsed with fresh medium, with or without readthrough inducers. Cells were harvested 24 hours later, with trypsin—EDTA (Invitrogen), lysed with Glo lysis buffer (Promega) and beta-galactosidase and luciferase activities were assayed as previously described. Readthrough efficiency was estimated by calculating the ratio of luciferase activity to beta-galactosidase activity obtained with the test construct, with normalisation against an in-frame control construct. At least five independent transfection experiments were performed for each assay.

In a further assay the test system is nonsense mutation R213X. The experiment in a line: pAC99 dual reporter readthrough in HeLa cells, R213X. The following applies: 24 hours. It counts as cell-based, human. The protocol:
as §1, §2

Assay [1] has as its system p53 (endogenous nonsense mutation R213X) in HDQ-P1 cells. Briefly: Western blot of full-length p53 in HDQ-P1 cells. The following applies: HDQ-P1, 48 h; for production of the full-length p53 (western blot): TLN68 50 μM, TLN236 30 μM, TLN309 40 μM. It counts as cell-based, human. How it is done: HDQ-P1 cells (R213X) were treated with G418 ([…]), or the selected molecules (TLN68 50 μM, TLN1399 50 μM, TLN236 30 μM and TLN309 40 μM), for 48 h. Cells were harvested by treatment with trypsin—EDTA (Invitrogen), lysed in 350 mM NaCl, 50 mM Tris—HCl pH 7.5, 1% NP-40, and protease inhibitor cocktail (Roche) and disrupted by passage through a syringe.
Total proteins were quantified with Bradford reagent (Biorad) and extracts were denatured by incubation in Laemmli buffer for 5 minutes at 90° C. The inventors subjected 30 μg of total protein from HDQ-1 cells to SDS—PAGE in 4/10% Bis—Tris gels. Proteins were transferred onto nitrocellulose membranes, according to the manufacturer's instructions (Biorad). Membranes were saturated by overnight incubation in 5% skimmed milk powder in PBS, and incubated for 1 hour with the primary monoclonal antibody, DO-1 (N-terminal epitope mapping between amino acid residues 11 and 25 of p53; Santa Cruz Biotechnologies, 1/400) or a monoclonal antibody against mouse actin (Millipore, 1/2000). After three washes in PBS supplemented with 0.1% Tween, the membranes were incubated with the secondary antibody [horseradish peroxidase-conjugated anti-mouse IgG ( 1/2500)] for 45 minutes. The membranes were washed five times and chemiluminescence was detected with ECL Prime Western Blotting Detection Reagents (Amersham, GE Healthcare). The signal was quantified with ImageJ software.
For orientation: In western blotting, separated proteins are transferred to a membrane and probed.

For another assay, the system named is TP53-R213X mRNA. The experiment in a line: RT-qPCR of mutant p53 mRNA in HDQ-P1 cells. It is filed as cell-based, human. The following applies: HDQ-P1, 48 hours; TLN68 80 μM, TLN309 40 μM; n=3. The protocol: For the analysis of mRNA levels for p53 and its transcriptional target genes, Bax, the inventors extracted total RNA from HDQ-P1 cells that had or had not been treated with G418 (400 μM) or TLN68 (80 μM) for 48 hours (RNeasy Mini Kit, Qiagen). The RNA was treated with DNAse I (RNase-free DNase) and quantified with a Nanodrop spectrometer (ThermoScientific). The absence of RNA degradation was confirmed by agarose gel electrophoresis. The first-strand cDNA was synthesized from 2 μg of total RNA, with random primers and the SuperScript II Reverse Transcriptase (Invitrogen), as recommended by the manufacturer. Quantitative PCR was then carried out on equal amounts of the various cDNAs, with a CFX96 thermocycler (Biorad), and the accumulation of products was monitored with the intercalating dye FastStart Universal SYBRGreen Master (ROX) reagent (Roche). The inventors quantified mRNA levels relative to three reference mRNAs: RPL32, Hprt1 and HMBS. In each experiment, results are expressed relative to those for untreated cells, for which the value obtained was set to 1. Relative levels of gene expression were calculated at early stages of PCR, when the amplification was exponential and might, therefore, be correlated with the initial number of copies of the transcript. […] For the quantification of each mRNA, three independent experiments (from biological replicates) were performed in triplicate. […]
(In general: Quantitative PCR measures a nucleic acid by following its amplification.)

The subject of assay [2] is TP53 R213X nonsense mutation. The experiment in a line: Dual reporter (lacZ/F-luc, pAC99) stop codon readthrough quantification, R213X, NIH3T3 cells. It is filed as cell-based, mouse. To be noted: 24 h, each drug separately or together. The source says: Complementary oligonucleotides corresponding to TP53 R213X nonsense mutations and 9 nucleotides on both sides are ligated into the pAC99 dual reporter plasmid, as previously described (Premature stop codons involved in muscular dystrophies show a broad spectrum of readthrough efficiencies in response to gentamicin treatment, Bidou et al, Gene Therapy 1 Apr. 2004, 11(7):619-627). This dual reporter is used to quantify stop-codon readthrough through the measurement of luciferase and beta-galactosidase (internal calibration) activities, as previously described (Stahl et al, Versatile vectors to study recoding: conservation of rules between yeast and mammalian cells. Nucleic Acids Res 1995; 23:1557-60). Readthrough levels for nonsense mutations were analysed in the presence or absence of tested molecules. Cells were seeded in a 6-well plate. The next day, cells are transfected with the reporter plasmid in the presence of JetPei reagent (Invitrogen). The following day, they are rinsed with fresh medium, with or without readthrough inducers. […] Readthrough efficiency was estimated by calculating the ratio of luciferase activity to beta-galactosidase activity obtained with the test construct, with normalisation against an in-frame control construct. […]

Assay [3] deals with TP53 nonsense mutation R213X. Briefly: Secreted Metridia luciferase R213X reporter in stable NIH3T3 cell line (HTS). It is filed as cell-based, mouse. To be noted: gentamicin 1.6 mM 24 hours, 7 clones, library molecules 50 μM. How it is done: All cells were cultured in DMEM plus GlutaMAX (Invitrogen), except for H1299 cells, which were cultured in RPMI plus GlutaMAX (Invitrogen). The medium was supplemented with 10% foetal calf serum (FCS, Invitrogen) and 100 U/ml penicillin/streptomycin. Cells were kept in a humidified atmosphere containing 5.5% CO2, at 37° C. NIH3T3 cells are embryonic mouse fibroblasts. H1299 is a p53-null cell line established from a human lung carcinoma (provided by the ATCC). HDQ-P1 is homozygous for a nonsense mutation at codon 213 (CGA to TGA) in the p53 gene. This cell line was established from a human primary breast carcinoma and was provided by DSMZ-German collection of microorganisms and cell cultures. In order to generate a stable mammalian cell line the inventors used a secreted Metridia luciferase reporter gene derived from pMetLuc2 (Clonetech). […] Seven neomycin resistant clones were tested for their capacity to express active metridiae after readthrough induction in the presence of 1.6 mM gentamicin during 24 hours. Then 50 μL of culture medium was taken from each well and incubated in the presence of substrate: coelenterazine, according to the conditions recommended by the supplier (Ready-To-Glow Secreted Luciferase Reporter Assay (Clonetech)). The photon emission generated by the reaction was measured in a plate luminometer (Tecan). […]

Another assay relates to dystrophin. The following applies: skeletal muscle of mdx mice, subcutaneous injections (Barton-Davis et al, 1999); cited from earlier work.

For orientation: IC50 means the concentration at which inhibition is half-maximal. Lower therefore signals inhibition by little substance. Regarding `Cc1nc(NC(=N)N)nc2cc(F)ccc12` [EC-11], the IC50 in the assay on HeLa cells is 40 µM. Further, in the assay with nonsense mutation W1268X, the “Inducting factor of readthrough as compared to untreated cells (measured on nonsense mutation W1268X)” value amounted to 11.
`COc1ccc2c(C)nc(NC(=N)N)nc2c1` [EC-18, 1-(7-methoxy-4-methylquinazolin-2-yl)guanidine] registered an IC50 in the assay with HeLa cells of 60 µM. Further, the “Inducting factor of readthrough as compared to untreated cells (measured on nonsense mutation W1268X)” value with nonsense mutation W1268X is given as 69. The “Inducting factor of readthrough as compared to untreated cells (measured on nonsense mutation R213X)” value with nonsense mutation R213X is on record as 50.
For `COc1cccc2c(C)nc(NC(=N)N)nc12` [EC-30], the concentration for half-maximal inhibition (IC50) in the assay with HeLa cells turned out to be 80 µM. Also, the “Inducting factor of readthrough as compared to untreated cells (measured on nonsense mutation W1268X)” value in the assay on nonsense mutation W1268X was determined as 10.
For `Cc1nc(NC(=N)N)nc2c(C)cccc12` [EC-35, 1-(4,8-dimethylquinazolin-2-yl)guanidine], the IC50 in the assay with HeLa cells was 20 µM. The “Inducting factor of readthrough as compared to untreated cells (measured on nonsense mutation W1268X)” value with nonsense mutation W1268X is 11. Moreover, the “Inducting factor of readthrough as compared to untreated cells (measured on nonsense mutation R213X)” value with nonsense mutation R213X stood at 14.
For `Cc1nc(NC(=N)N)nc2cc(Br)ccc12` [EC-85], in that order: 20 µM, 15 and 16.
The matching figures for `Cc1nc(NC(=N)N)nc2c(C)c(Br)ccc12` [EC-130, 1-(7-bromo-4,8-dimethylquinazolin-2-yl)guanidine]: 10 µM, 21 and 33.
Turning to `Cc1nc(NC(=N)N)nc2cc(Cl)ccc12` [EC-141], the IC50 in the assay on HeLa cells is 40 µM. In addition, the “Inducting factor of readthrough as compared to untreated cells (measured on nonsense mutation W1268X)” value in the assay with nonsense mutation W1268X is on record as 16.
On to `CCc1nc(NC(=N)N)nc2cc(OC)ccc12` [EC-265], for which the IC50 in the assay with HeLa cells came out at 60 µM. Moreover, in the assay on nonsense mutation W1268X, the “Inducting factor of readthrough as compared to untreated cells (measured on nonsense mutation W1268X)” value was found to be 19. The “Inducting factor of readthrough as compared to untreated cells (measured on nonsense mutation R213X)” value with nonsense mutation R213X came to 40.
The matching figures for `Cc1nc(NC(=N)N)nc2c(C)c(F)ccc12` [EC-288, 1-(7-fluoro-4,8-dimethylquinazolin-2-yl)guanidine]: 20 µM, 68 and 55.
The matching figures for `Cc1nc(NC(=N)N)nc2c(C)c(Cl)ccc12` [EC-335, 1-(7-chloro-4,8-dimethylquinazolin-2-yl)guanidine]: 10 µM, 33 and 38.
For `COc1cc(C(=O)OCCCN2CCCN(CCCOC(=O)c3cc(OC)c(OC)c(OC)c3)CC2)cc(OC)c1OC.Cl.Cl` [TLN236], the “production of the full-length p53 (western blot)” value in assay [1] is “no protein is revealed”.
Take `CCN(CC)Cc1cc(Nc2ccnc3cc(Cl)ccc23)ccc1O` [TLN309, Amodiaquine]: the “level of induction of full-length p53 compared with G418” value in assay [1] (G418 10 and 20 mM) is recorded as “even higher to the one obtained in presence of G418”. In assay [1], the “production of the full-length p53 (western blot)” value is listed as “stimulate the production of the full-length p53”. Moreover, the “stabilisation of TP53-R213X mRNA relative to untreated” value in the assay with TP53-R213X mRNA is “marginal stabilisation”.
gentamicin registered a readthrough level in assay [2] of 10%. Further, in assay [3], the “induction of Metridia luciferase activity” value is reported as “significant induction”. Also, the “restoration of dystrophin levels relative to wild-type animals” value with dystrophin is recorded as 10-20%.
